# Measurements: ChEMBL document CHEMBL5550116, “Discovery of novel macrocyclic derivatives as potent and selective cyclin-dependent kinase 2 inhibitors” (Bioorg Med Chem, 2024)
# The source made the active and inactive calls. No cut-off for these calls is given here.
# How the values were obtained:
# [1] = biological target: Cyclin-dependent kinase 5/CDK5 activator 1 (Homo sapiens, UniProt Q00535); experiment: Inhibition of human CDK5/p25NCK using histone H1 as substrate preincubated for 10 mins followed by substrate and ATP addition and measured after 60 mins by ADP-Glo reagent based microplate reader assay; assay type: protein-complex assay
# CDK9/cyclin T1 = CDK9/cyclin T1 (Homo sapiens, UniProt P50750); experiment: Inhibition of full-length recombinant N-terminal GST-tagged human CDK9 (1 to 372 residues)/His-tagged cyclinT1 (1 to 726 residues) expressed in baculovirus expression system using histone H1 as substrate preincubated for 10 mins followed by substrate and ATP addition and measured after 60 mins by ADP-Glo reagent based microplate reader assay
# [2] = biological target: Cyclin-dependent kinase 2/cyclin E1 (Homo sapiens, UniProt P24941); experiment: Inhibition of full length N-terminal GST-tagged human CDK2 (1 to 298 residues)/cyclin E1 (1 to 410 residues) expressed in Sf21 cells using histone H1 as substrate preincubated for 10 mins followed by substrate and ATP addition and measured after 60 mins by ADP-Glo reagent based microplate reader assay
# CDK7/Cyclin H/MNAT1 = CDK7/Cyclin H/MNAT1 (Homo sapiens, UniProt P50613); experiment: Inhibition of recombinant human His-tagged CDK7/cyclin H/MNAT1 expressed in baculovirus expression system using histone H1 as substrate preincubated for 10 mins followed by substrate and ATP addition and measured after 60 mins by ADP-Glo reagent based microplate reader assay
# [3] = biological target: Cyclin-dependent kinase 12 (Homo sapiens) (UniProt Q9NYV4); experiment: Inhibition of CDK12 (unknown origin) at 1 uM
# [4] = biological target: Cyclin-dependent kinase 5 (Homo sapiens) (UniProt Q00535); experiment: Inhibition of CDK5 (unknown origin) at 1 uM
# [5] = biological target: Cyclin-dependent kinase 1 (Homo sapiens) (UniProt P06493); experiment: Inhibition of CDK1 (unknown origin) at 1 uM
# MKN-1 [6] = experiment: Induction of cell cycle arrest in human MKN-1 cells assessed as reduction in G2/M phase cells at 111.1 to 333.3 nM incubated for 24 hrs by PI staining based flow cytometry analysis; assay type: functional; settings: dose 111.1-333.3 nM
# [7] = biological target: CDK12/Cyclin K (Homo sapiens) (UniProt O75909+Q9NYV4); experiment: Inhibition of CDK12/Cyclin K (unknown origin) at 100 nM by HTRF assay; assay type: protein-complex assay
# MKN-1 [8] = experiment: Antiproliferative activity against human MKN-1 cells incubated for 5 days by CCK-8 assay; assay type: functional, cell-based; settings: MKN-1, 120 h
# [9] = biological target: Cyclin-dependent kinase 2 (Homo sapiens) (UniProt P24941); experiment: Inhibition of CDK2 in human MKN-1 cells assessed as reduction in Rb phosphorylation at Ser807/11 incubated for 24 hrs by Western blotting analysis; assay type: cell-based; settings: dose 37-3000 nM
# [10] = Clearance in CD1 mouse plasma at 1 mg/kg, iv measured upto 24 hrs by LC-MS/MS analysis; assay type: ADME, organism-based
# [11] = biological target: Cyclin-dependent kinase 2 (Homo sapiens) (UniProt P24941); experiment: Inhibition of CDK2 in human MKN-1 cells assessed as reduction in Rb phosphorylation at Ser780 incubated for 24 hrs by Western blotting analysis; assay type: cell-based; settings: dose 37-3000 nM
# [12] = biological target: Cyclin-dependent kinase 7 (Homo sapiens) (UniProt P50613); experiment: Inhibition of CDK7 (unknown origin) at 1 uM
# [13] = biological target: Cyclin-dependent kinase 13 (Homo sapiens) (UniProt Q14004); experiment: Inhibition of CDK13 (unknown origin) at 1 uM
# Homo sapiens = species on record: Homo sapiens; experiment: Inhibition of CDK1/cyclin A2 (unknown origin) at 100 nM by ADP-Glo assay
# [14] = Drug uptake in CD1 mouse plasma at 10 mg/kg, po measured upto 24 hrs by LC-MS/MS analysis; assay type: ADME, organism-based; settings: in vivo
# MKN-1 [15] = experiment: Induction of cell cycle arrest in human MKN-1 cells assessed as accumulation of cells at G0/G1 phase at 111.1 to 333.3 nM incubated for 24 hrs by PI staining based flow cytometry analysis; assay type: functional; settings: dose 111.1-333.3 nM
# [16] = Metabolic stability in mouse liver microsomes assessed as half life at 1 uM preincubated with compound for 10 mins followed by beta-NADPH addition measured upto 60 mins by LC-MS/MS analysis; assay type: ADME, Microsome; settings: time < 70 min
# [17] = biological target: Cyclin-dependent kinase 9 (Homo sapiens) (UniProt P50750); experiment: Inhibition of CDK9 (unknown origin) at 1 uM
# [18] = Metabolic stability in human liver microsomes assessed as half life at 1 uM preincubated with compound for 10 mins followed by beta-NADPH addition measured upto 60 mins by LC-MS/MS analysis; assay type: ADME, Microsome; settings: time < 70 min
# Chain of CDK7/Cyclin H/MNAT1 (P51946 whole entry): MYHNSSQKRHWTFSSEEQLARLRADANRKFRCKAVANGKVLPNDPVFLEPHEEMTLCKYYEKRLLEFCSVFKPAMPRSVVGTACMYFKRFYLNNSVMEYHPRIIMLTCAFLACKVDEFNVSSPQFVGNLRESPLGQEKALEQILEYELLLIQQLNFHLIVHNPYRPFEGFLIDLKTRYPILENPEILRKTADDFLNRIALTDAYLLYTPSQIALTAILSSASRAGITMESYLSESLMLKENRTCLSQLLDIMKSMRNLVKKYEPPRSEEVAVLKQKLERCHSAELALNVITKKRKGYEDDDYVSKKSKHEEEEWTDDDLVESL
# Chain of CDK7/Cyclin H/MNAT1 (P50613 whole entry): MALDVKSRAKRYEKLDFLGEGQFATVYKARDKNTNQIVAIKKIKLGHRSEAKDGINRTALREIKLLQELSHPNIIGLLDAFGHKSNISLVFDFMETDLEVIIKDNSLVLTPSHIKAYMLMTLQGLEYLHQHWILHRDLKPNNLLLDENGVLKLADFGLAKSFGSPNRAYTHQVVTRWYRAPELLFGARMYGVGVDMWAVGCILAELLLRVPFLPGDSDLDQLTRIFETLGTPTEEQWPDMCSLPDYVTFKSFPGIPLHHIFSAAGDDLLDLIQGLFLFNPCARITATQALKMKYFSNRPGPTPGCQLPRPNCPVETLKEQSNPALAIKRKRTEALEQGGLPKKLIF
# Chain of CDK7/Cyclin H/MNAT1 (P51948 whole entry, further chain): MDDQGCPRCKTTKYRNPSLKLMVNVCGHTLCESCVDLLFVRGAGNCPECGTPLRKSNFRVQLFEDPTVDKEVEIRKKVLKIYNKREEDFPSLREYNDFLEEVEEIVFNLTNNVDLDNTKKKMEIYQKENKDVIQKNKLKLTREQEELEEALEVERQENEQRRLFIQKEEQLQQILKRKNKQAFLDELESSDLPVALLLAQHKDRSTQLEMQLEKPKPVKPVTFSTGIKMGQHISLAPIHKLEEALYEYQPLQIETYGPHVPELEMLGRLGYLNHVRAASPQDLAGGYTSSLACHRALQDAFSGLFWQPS
# Chain of CDK9/cyclin T1 (O60563 whole entry, the tested form may be a part): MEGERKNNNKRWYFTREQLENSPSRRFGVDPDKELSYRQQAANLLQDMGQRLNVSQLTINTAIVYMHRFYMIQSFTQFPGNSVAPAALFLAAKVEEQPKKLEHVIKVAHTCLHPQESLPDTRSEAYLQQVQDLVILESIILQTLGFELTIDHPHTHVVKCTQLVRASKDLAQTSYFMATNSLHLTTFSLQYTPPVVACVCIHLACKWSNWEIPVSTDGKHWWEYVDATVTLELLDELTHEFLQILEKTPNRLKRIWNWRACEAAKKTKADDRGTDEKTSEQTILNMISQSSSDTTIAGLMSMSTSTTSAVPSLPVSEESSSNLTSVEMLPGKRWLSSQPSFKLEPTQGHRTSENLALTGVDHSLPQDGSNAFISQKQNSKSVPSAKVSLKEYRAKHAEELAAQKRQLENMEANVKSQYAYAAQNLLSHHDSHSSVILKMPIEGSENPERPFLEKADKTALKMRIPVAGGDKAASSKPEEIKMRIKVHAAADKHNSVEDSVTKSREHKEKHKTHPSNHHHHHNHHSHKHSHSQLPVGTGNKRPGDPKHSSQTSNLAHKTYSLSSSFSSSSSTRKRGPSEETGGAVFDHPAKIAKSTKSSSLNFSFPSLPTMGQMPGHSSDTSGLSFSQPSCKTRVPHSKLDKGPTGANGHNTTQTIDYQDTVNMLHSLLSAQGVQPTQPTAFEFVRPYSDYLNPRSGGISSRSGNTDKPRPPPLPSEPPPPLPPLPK
# Chain of CDK9/cyclin T1 (P50750 whole entry, the tested form may be a part): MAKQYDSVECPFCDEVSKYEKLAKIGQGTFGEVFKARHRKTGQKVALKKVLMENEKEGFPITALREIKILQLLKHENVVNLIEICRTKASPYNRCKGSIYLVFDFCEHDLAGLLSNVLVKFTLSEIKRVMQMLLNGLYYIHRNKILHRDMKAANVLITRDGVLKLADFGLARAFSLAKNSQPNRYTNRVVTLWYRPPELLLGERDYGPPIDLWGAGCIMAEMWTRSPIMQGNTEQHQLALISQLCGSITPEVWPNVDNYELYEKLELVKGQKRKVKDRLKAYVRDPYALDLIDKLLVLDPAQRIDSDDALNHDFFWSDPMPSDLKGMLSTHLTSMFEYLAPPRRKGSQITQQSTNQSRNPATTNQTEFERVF
# Chain of Cyclin-dependent kinase 5/CDK5 activator 1 (Q00535 whole entry, the tested form may be a part): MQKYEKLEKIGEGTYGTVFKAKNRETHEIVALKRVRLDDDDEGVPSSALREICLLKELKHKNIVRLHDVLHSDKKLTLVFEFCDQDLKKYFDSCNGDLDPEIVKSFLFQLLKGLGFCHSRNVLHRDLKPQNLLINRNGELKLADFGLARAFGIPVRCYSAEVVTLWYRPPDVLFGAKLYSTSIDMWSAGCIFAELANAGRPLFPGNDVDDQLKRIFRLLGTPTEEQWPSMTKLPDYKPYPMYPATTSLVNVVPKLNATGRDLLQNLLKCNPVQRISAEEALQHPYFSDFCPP
# Chain of Cyclin-dependent kinase 5/CDK5 activator 1 (Q15078 whole entry, further chain, the tested form may be a part): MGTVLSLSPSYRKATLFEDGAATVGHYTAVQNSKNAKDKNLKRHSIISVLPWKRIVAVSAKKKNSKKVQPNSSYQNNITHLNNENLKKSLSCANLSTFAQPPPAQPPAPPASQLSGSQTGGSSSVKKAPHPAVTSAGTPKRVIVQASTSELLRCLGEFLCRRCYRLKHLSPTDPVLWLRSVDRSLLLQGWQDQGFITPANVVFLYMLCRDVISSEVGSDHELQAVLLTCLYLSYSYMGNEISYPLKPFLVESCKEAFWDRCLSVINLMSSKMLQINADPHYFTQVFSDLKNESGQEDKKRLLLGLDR
# Chain of CDK12/Cyclin K (Homo sapiens) (O75909 whole entry, looked up): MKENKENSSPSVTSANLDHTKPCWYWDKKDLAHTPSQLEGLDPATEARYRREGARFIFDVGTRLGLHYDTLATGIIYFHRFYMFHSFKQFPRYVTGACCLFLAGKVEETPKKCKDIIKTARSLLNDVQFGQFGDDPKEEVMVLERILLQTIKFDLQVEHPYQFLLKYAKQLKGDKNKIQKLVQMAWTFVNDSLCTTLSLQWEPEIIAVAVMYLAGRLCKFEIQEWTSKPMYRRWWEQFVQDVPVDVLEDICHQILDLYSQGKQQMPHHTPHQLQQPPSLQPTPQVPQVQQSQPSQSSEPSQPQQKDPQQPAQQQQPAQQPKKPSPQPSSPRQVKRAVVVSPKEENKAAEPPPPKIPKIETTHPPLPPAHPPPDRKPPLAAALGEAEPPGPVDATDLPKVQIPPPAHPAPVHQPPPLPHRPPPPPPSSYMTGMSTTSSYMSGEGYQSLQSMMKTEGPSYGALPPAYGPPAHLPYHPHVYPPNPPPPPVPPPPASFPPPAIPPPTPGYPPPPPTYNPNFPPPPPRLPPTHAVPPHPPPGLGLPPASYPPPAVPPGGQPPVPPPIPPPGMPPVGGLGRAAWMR
# Chain of CDK12/Cyclin K (Homo sapiens) (Q9NYV4 whole entry, looked up): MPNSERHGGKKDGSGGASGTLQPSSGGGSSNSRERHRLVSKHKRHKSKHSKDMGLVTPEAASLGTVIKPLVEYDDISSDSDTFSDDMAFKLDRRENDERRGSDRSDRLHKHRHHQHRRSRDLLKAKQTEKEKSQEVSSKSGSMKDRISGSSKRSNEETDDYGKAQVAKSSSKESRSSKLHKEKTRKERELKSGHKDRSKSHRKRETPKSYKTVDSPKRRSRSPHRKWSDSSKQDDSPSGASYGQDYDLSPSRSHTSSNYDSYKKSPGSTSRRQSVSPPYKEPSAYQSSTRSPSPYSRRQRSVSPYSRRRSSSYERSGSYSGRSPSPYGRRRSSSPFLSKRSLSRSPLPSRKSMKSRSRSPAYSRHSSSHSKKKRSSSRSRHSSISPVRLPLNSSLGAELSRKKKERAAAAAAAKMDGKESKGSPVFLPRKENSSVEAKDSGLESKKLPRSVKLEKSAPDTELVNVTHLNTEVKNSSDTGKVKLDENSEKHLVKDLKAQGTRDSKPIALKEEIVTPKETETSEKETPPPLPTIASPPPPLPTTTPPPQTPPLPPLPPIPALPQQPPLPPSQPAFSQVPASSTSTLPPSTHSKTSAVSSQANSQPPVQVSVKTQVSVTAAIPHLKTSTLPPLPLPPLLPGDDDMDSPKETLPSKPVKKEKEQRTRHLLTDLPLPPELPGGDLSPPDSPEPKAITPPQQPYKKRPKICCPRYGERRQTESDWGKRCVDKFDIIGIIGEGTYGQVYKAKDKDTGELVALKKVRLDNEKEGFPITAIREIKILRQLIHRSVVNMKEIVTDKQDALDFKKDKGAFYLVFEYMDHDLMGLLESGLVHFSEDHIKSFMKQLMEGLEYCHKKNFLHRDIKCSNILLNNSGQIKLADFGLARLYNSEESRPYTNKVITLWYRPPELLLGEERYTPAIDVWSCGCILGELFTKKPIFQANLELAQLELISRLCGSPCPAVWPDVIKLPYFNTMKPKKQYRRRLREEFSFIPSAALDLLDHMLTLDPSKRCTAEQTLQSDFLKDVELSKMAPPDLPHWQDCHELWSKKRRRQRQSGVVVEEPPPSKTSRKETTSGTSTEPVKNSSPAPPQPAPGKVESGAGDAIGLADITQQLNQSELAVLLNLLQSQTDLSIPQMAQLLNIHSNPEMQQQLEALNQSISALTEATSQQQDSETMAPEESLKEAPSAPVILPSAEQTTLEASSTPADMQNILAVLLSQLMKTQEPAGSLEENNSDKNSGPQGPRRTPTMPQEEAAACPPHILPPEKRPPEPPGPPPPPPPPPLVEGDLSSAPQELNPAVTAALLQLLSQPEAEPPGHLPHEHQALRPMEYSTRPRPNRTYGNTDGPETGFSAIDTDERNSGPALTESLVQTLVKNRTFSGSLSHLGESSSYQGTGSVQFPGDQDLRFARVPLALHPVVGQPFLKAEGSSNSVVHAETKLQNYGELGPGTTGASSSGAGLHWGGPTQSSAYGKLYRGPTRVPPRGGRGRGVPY
# Chain of Cyclin-dependent kinase 7 (Homo sapiens) (P50613 whole entry): as the sequence (P50613 whole entry) above
# Chain of Cyclin-dependent kinase 9 (Homo sapiens) (P50750 whole entry): as the sequence (P50750 whole entry, the tested form may be a part) above
# Chain of Cyclin-dependent kinase 12 (Homo sapiens) (Q9NYV4 whole entry, looked up): as the sequence (Q9NYV4 whole entry, looked up) above
compound,measurement,setting,value
CC(C)c1cnn2c3nc(nc12)N(CC1CCNCC1)CCCCCOc1cc(S(C)(=O)=O)ccc1CN3,Ki,[1],2.4 nM
same,Ki,CDK9/cyclin T1,2.7 nM
same,Ki,[2],4.9 nM
same,Ki,CDK7/Cyclin H/MNAT1,21.3 nM
CC(C)c1cnn2c3nc(nc12)N(CC1CCNCC1)CCCCCOc1cc(C#N)ccc1CN3,Ki,[1],4.4 nM
same,Ki,CDK9/cyclin T1,5.8 nM
same,Ki,[2],9.4 nM
same,Ki,CDK7/Cyclin H/MNAT1,43.4 nM
CC(C)c1cnn2c3nc(nc12)N(C1CNC1)CCCCCOc1ccccc1CN3,Ki,[2],158 nM
CC(C)c1cnn2c3nc(nc12)N(CC(C)(C)CN)CCCCCOc1ccccc1CN3,Ki,[1],60.3 nM
same,Ki,[2],49.6 nM
CC(C)c1cnn2c3nc(nc12)N(CC1CNC1)CCCCCOc1cc(S(C)(=O)=O)ccc1CN3,inhibition,[3],Active
same,inhibition,[4],Active
same,inhibition,[5],Active
same,Activity,MKN-1 [6],Active
same,inhibition,[7],Active
same,EC50,MKN-1 [8],310 nM
same,inhibition,[9],Dose-Dependent Effect
same,clearance,[10],159 mL/min/kg
same,inhibition,[11],Dose-Dependent Effect
same,inhibition,[12],Active
same,inhibition,[13],Active
same,inhibition,Homo sapiens,Active
same,Drug uptake,[14],Not Active
same,Activity,MKN-1 [15],Active
same,Ki,[2],1 nM
same,half-life at 1 µM,[16],112 min
same,inhibition,[17],Active
same,half-life at 1 µM,[18],122 min
CC(C)c1cnn2c3nc(nc12)N(CC1CCOCC1)CCCCCOc1ccccc1CN3,Ki,[2],426 nM
CC(C)c1cnn2c3nc(nc12)N(CC1CCNC1)CCCCCOc1ccccc1CN3 (configuration not stated),Ki,[1],3.6 nM
same,Ki,[2],1 nM
same,Ki,CDK7/Cyclin H/MNAT1,9.5 nM
CC(C)c1cnn2c3nc(nc12)N(CC1CNC1)CCCCCOc1ccccc1CN3,EC50,MKN-1 [8],3400 nM
same,Ki,[1],30.7 nM
same,Ki,CDK9/cyclin T1,60 nM
same,Ki,[2],3 nM
same,half-life at 1 µM,[16],61.9 min
same,Ki,CDK7/Cyclin H/MNAT1,101 nM
same,half-life at 1 µM,[18],36.1 min
CC(C)c1cnn2c3nc(nc12)N(CC1CCNCC1)CCCCCOc1cc(F)c(F)cc1CN3,Ki,[1],4.4 nM
same,Ki,[2],2.9 nM
CC(C)c1cnn2c3nc(nc12)N(CC1CNC1)CCCCCOc1cc(C(F)(F)F)ccc1CN3,Ki,[2],15.4 nM
CC(C)c1cnn2c3nc(nc12)N(CCC1CNC1)CCCCCOc1cc(S(C)(=O)=O)ccc1CN3,Ki,[2],35.3 nM
CC(C)c1cnn2c3nc(nc12)N(CC1CNC1)CCCCCOc1ccc(C#N)cc1CN3,Ki,[2],> 1000 nM
CC(C)c1cnn2c3nc(nc12)N(CC1CNC1)CCCCCOc1cc(F)c(F)cc1CN3,EC50,MKN-1 [8],1460 nM
same,Ki,[2],3.4 nM
same,half-life at 1 µM,[16],22 min
CC(C)n1cnc2c3nc(nc21)N(CC1CNC1)CCCCCOc1cc(S(C)(=O)=O)ccc1CN3,Activity,MKN-1 [6],Active
same,EC50,MKN-1 [8],740 nM
same,inhibition,[9],Dose-Dependent Effect
same,clearance,[10],159 mL/min/kg
same,inhibition,[11],Dose-Dependent Effect
same,Drug uptake,[14],Not Active
same,Activity,MKN-1 [15],Active
same,Ki,[2],3.6 nM
same,half-life at 1 µM,[16],6.3 min
same,half-life at 1 µM,[18],46.2 min
CC(C)c1cnn2c3nc(nc12)N(CCC1CNC1)CCCCCOc1ccccc1CN3,Ki,[1],28.7 nM
same,Ki,[2],48.4 nM
CC(C)c1cnn2c3nc(nc12)N(CC1CCN(C)CC1)CCCCCOc1ccccc1CN3,Ki,[1],1 nM
same,Ki,CDK9/cyclin T1,16.3 nM
same,Ki,[2],2.7 nM
same,Ki,CDK7/Cyclin H/MNAT1,60.2 nM
CC(C)c1cnn2c3nc(nc12)N(CC1CCNCC1)CCCCCOc1ccc(S(C)(=O)=O)cc1CN3,Ki,[2],83.2 nM
CC(C)c1cnn2c3nc(nc12)N(CC1CNC1)CCCCCOc1ccc(F)cc1CN3,EC50,MKN-1 [8],940 nM
same,Ki,[2],1 nM
same,half-life at 1 µM,[16],15.2 min
CC(C)c1cnn2c3nc(nc12)N(CC1CCNCC1)CCCCCOc1cc(C(F)(F)F)ccc1CN3,Ki,[1],42.1 nM
same,Ki,CDK9/cyclin T1,43.3 nM
same,Ki,[2],15.1 nM
same,Ki,CDK7/Cyclin H/MNAT1,161 nM
CC(C)c1cnn2c3nc(nc12)N(CC1CCCNC1)CCCCCOc1ccccc1CN3 (configuration not stated),Ki,[1],140 nM
same,Ki,[2],46.1 nM
CC(C)c1cnn2c3nc(nc12)N(CC1CCNCC1)CCCCCOc1ccc(C(F)(F)F)cc1CN3,Ki,[2],92.3 nM
CC(C)c1cnn2c3nc(nc12)N(CC1CNC1)CCCCCOc1ccc(C(F)(F)F)cc1CN3,Ki,[2],> 1000 nM
CC(C)c1cnn2c3nc(nc12)N(CC1CCNCC1)CCCCCOc1ccc(F)cc1CN3,Ki,[1],2.5 nM
same,Ki,[2],3.1 nM
CC(C)c1cnn2c3nc(nc12)N(C[C@@H]1CNC[C@H]1O)CCCCCOc1ccccc1CN3,Ki,[1],0.9 nM
same,Ki,[2],0.7 nM
same,Ki,CDK7/Cyclin H/MNAT1,2.8 nM
CC(C)c1cnn2c3nc(nc12)N(CC1CNC1)CCCCCOc1cc(C#N)ccc1CN3,Ki,[2],35.8 nM
